# “And” between values parts separate entries of the source, which are not always exact repeats. Equal entries are not always repeated. “Also recorded” adds a separate entry of the source. Marks after values point to notes of the source that are not given here.
# Key:
# relapsed/refractory PTCL [1] = experiment: PROPEL subset analysis: second-line pralatrexate after first-line CHOP only (N=15) vs other patients (n=94); type: in vivo, human
# Protocol: The most common therapy for first-line treatment of PTCL is the multi-agent combination cyclophosphamide/doxorubicin/vincristine prednisone (CHOP). However, most patients progress within 6-12 months, and there is no standard of care for second-line treatment of these patients. Thus optimal second-line approaches are needed and agents based on a unique mechanism of action warrant study. This analysis was conducted to determine if pralatrexate offered a beneficial second-line treatment option. […] All patients in the PROPEL study had received at least 1 prior therapy for PTCL. […] The efficacy in these patients was compared with the remainder of the patient population who had not received CHOP as their only therapy for PTCL prior to pralatrexate (n=94).
# relapsed/refractory PTCL [2] = experiment: PROPEL subset analysis: patients previously treated with ICE-based regimens (N=20) vs other patients (n=89); type: in vivo, human
# Source text: The prognosis of aggressive PTCL is dismal. Investigators have developed salvage regimens attempting to improve outcomes for patients with relapsed or refractory disease. One such regimen frequently used is ifosfamide, carboplatin, and etoposide (ICE) or ICE-based regimens (eg, and rituximab-ICE [RICE] and dexamethasome-ICE [DICE]). These regimens can have response rates approaching 70% and patients may proceed to a stem cell transplant, yet most patients tend to relapse quickly (Horwitz et al Blood 2005; 106:a2679). Thus, optimal approaches for patients with relapsed or refractory disease are needed, and agents based on a unique mechanism of action warrant study. This analysis was conducted to determine if pralatrexate offered a beneficial treatment option for patients after treatment with an ICE/RICE/DICE regimen. Methods: Pralatrexate was administered via intravenous push over 3 to 5 minutes at 30 mg/m^2/week for six weeks in 7-week cycles with concurrent 1 mg vitamin B12 intramuscular every 8 to 10 weeks and folic acid 1.0 to 1.25 mg by mouth once daily. 109 patients were treated with pralatrexate in the PROPEL study. All patients in the PROPEL study had received at least 1 prior therapy for PTCL. A subset of 20 patients had received ICE, RICE or DICE at some point prior to treatment with pralatrexate. The efficacy in these patients was compared to the remainder of the patient population who had not received ICE/RICE/DICE as a therapy for PTCL prior to pralatrexate (n=89). The patient population that previously received an ICE-based regimen was heavily pretreated with am edian of 3 prior systemic regimens (range, 2-11). The median age was 45 years, a younger patient population compared with the overall PROPEL population (59 years).
# ORR, duration of response, and progression-free survival (PFS) by independent central review and investigator assessment, and OS, are presented in Table 6. Details of the patients who responded to pralatrexate according to assessment by independent central review are provided in Table 7.
# [3] = 15 patients with CHOP as only prior therapy
# [4] = individual responders after first-line CHOP, central review, most values censored
# [5] = other patients in the study (n=94)
# [6] = second-line after CHOP, N=15, central review
# [7] = second-line after CHOP, N=15, investigator
# [8] = second-line after CHOP, N=15, investigator, Kaplan-Meier
# [9] = second-line after CHOP, N=15, investigator, Kaplan-Meier, listed as pralatrexate
# [10] = 20 patients with prior ICE/RICE/DICE
# [11] = individual responders previously treated with ICE (N=8), central review, some values censored
# [12] = of the 8 patients who did not respond to ICE as most recent therapy
# [13] = prior ICE-based regimen, N=20, independent central review
# [14] = prior ICE-based regimen, N=20, independent central review, Kaplan-Meier
# [15] = prior ICE-based regimen, N=20, investigator assessment
# [16] = prior ICE-based regimen, N=20, investigator assessment, Kaplan-Meier
smiles,measurement,setting,value
"C#CCC(Cc1cnc2nc(N)nc(N)c2n1)c1ccc(C(=O)N[C@@H](CCC(=O)O)C(=O)O)cc1 (mixture of isomers) [Pralatrexate, (2S)-2-[[4-[(1RS)-1-[(2,4-diaminopteridin-6-yl)methyl]but-3-ynyl]benzoyl]amino]pentanedioic acid]",CR/CRu by investigators assessment,relapsed/refractory PTCL [1]; [3],33%
same,Complete responses [CR] by independent central review,relapsed/refractory PTCL [1]; [3],20%
same,ORR by investigator assessment,relapsed/refractory PTCL [1]; [3],40%
same,Overall response rate (ORR) by independent central review,relapsed/refractory PTCL [1]; [3],47%
same,Duration of Response,"relapsed/refractory PTCL [1]; individual responder after first-line CHOP, central review, censored (initiation of other subsequent therapy)",1 day^a
same,Duration of Response (months),relapsed/refractory PTCL [1]; [4],10.1^a months and 9.7^b months and 8.3^b months and 6.5^a months and 3.3^c months and 2.3^c months
same,PFS (months),relapsed/refractory PTCL [1]; [4],14.8^a months and 17.8^b months and 15.5^b months and 8.1 months and 4.6^c months and 3.4^c months and 4.6^a months
same,Duration of Response (months),"relapsed/refractory PTCL [1]; individual responders after first-line CHOP, central review, most values censored, listed as pralatrexate",2.3 months and 3.3 months
same,Patients still alive at the time of last contact,relapsed/refractory PTCL [1]; of the 15 patients,73%
same,Patients who proceeded to a stem cell transplant upon attaining a response to pralatrexate,relapsed/refractory PTCL [1]; of the 15 patients treated only with CHOP,Two
same,CR/CRu by investigators assessment,relapsed/refractory PTCL [1]; other patients (n=94),16%
same,Median PFS according to central review,relapsed/refractory PTCL [1]; other patients (n=94),3.1 months
same,Median PFS per investigator assessment,relapsed/refractory PTCL [1]; other patients (n=94),3.5 months
same,Median duration of response per investigator assessment,relapsed/refractory PTCL [1]; other patients (n=94),6.7 months
same,ORR by investigators assessment,relapsed/refractory PTCL [1]; other patients (n=94),39%
same,CR/CRu by independent central review,relapsed/refractory PTCL [1]; [5],10%
same,ORR by independent central review,relapsed/refractory PTCL [1]; [5],27%
same,12-month OS estimate,"relapsed/refractory PTCL [1]; second-line after CHOP, N=15",73%
same,"OS, Median, months (95% CI)","relapsed/refractory PTCL [1]; second-line after CHOP, N=15, NE = not able to estimate",not able to be estimated
same,"PFS, Range",relapsed/refractory PTCL [1]; [6],0.7-17.8^c months
same,Tumor Response: CRu,relapsed/refractory PTCL [1]; [6],0 (0) n (%)
same,Tumor Response: Not evaluable,relapsed/refractory PTCL [1]; [6],0 (0) n (%)
same,Tumor Response: ORR (CR + CRu + PR),relapsed/refractory PTCL [1]; [6],7 (47) n (%)
same,Tumor response: CR,relapsed/refractory PTCL [1]; [6],3 (20) n (%)
same,Tumor response: PD,relapsed/refractory PTCL [1]; [6],4 (27) n (%)
same,Tumor response: PR,relapsed/refractory PTCL [1]; [6],4 (27) n (%)
same,Tumor response: SD,relapsed/refractory PTCL [1]; [6],4 (27) n (%)
same,"PFS, Median, months (95% CI)","relapsed/refractory PTCL [1]; second-line after CHOP, N=15, central review, Kaplan-Meier","8.1 (4.6, NE) months"
same,"PFS, Median, months (95% CI)","relapsed/refractory PTCL [1]; second-line after CHOP, N=15, central review, Kaplan-Meier, listed as pralatrexate",8.1 months
same,"Duration of response, Median, months (95% CI)","relapsed/refractory PTCL [1]; second-line after CHOP, N=15, central review, NE = not able to estimate, insufficient PD events",not reached; also recorded: not yet estimable
same,Tumor Response: CRu,relapsed/refractory PTCL [1]; [7],1 (7) n (%)
same,Tumor Response: Not evaluable,relapsed/refractory PTCL [1]; [7],1 (7)^a n (%)
same,Tumor Response: ORR (CR + CRu + PR),relapsed/refractory PTCL [1]; [7],6 (40) n (%)
same,Tumor response: CR,relapsed/refractory PTCL [1]; [7],4 (27) n (%)
same,Tumor response: PD,relapsed/refractory PTCL [1]; [7],4 (27) n (%)
same,Tumor response: PR,relapsed/refractory PTCL [1]; [7],1 (7) n (%)
same,Tumor response: SD,relapsed/refractory PTCL [1]; [7],4 (27) n (%)
same,"Duration of response, Median, months (95% CI)",relapsed/refractory PTCL [1]; [8],"12.5 (10.8, NE) months"
same,"PFS, Median, months (95% CI)",relapsed/refractory PTCL [1]; [8],"7.4 (2.3, 15.0) months"
same,"Duration of response, Median, months (95% CI)",relapsed/refractory PTCL [1]; [9],12.5 months
same,"PFS, Median, months (95% CI)",relapsed/refractory PTCL [1]; [9],7.4 months
same,"OS, Range","relapsed/refractory PTCL [1]; second-line after CHOP, N=15, survival follow-up ended at 2 years",1.5-24.0^d months
same,Current disease-free period (duration of response to pralatrexate + time since stem cell transplant),relapsed/refractory PTCL [1]; the 2 patients who proceeded to stem cell transplant,20.9 months and 27.2 months and 20.1 months and 21.7 months
same,CR/CRu based on investigators assessment,relapsed/refractory PTCL [2]; [10],25%
same,Complete responses [CR] by independent central review,relapsed/refractory PTCL [2]; [10],15%
same,ORR based on investigators assessment,relapsed/refractory PTCL [2]; [10],40%
same,Overall response rate (ORR) by independent central review,relapsed/refractory PTCL [2]; [10],40%
same,Median PFS in the 20 patients relative to that of the other patients,relapsed/refractory PTCL [2]; central review,over 3 times
same,Duration of Response (months),relapsed/refractory PTCL [2]; [11],17.1^b months and 13.1 months and 10.1 months and 3.4 months and 1.6 months
same,PFS (months),relapsed/refractory PTCL [2]; [11],14.4 months and 17.8 months and 4.8 months and 3.0 months
same,Duration of Response (months),"relapsed/refractory PTCL [2]; individual responders previously treated with ICE (N=8), central review, some values censored, listed as pralatrexate",1.3 months and 4.9 months
same,CR to pralatrexate,relapsed/refractory PTCL [2]; [12],2 patients
same,PR to pralatrexate,relapsed/refractory PTCL [2]; [12],1 patients
same,Patients who responded to pralatrexate,relapsed/refractory PTCL [2]; [12],3 patients
same,Patients who responded to pralatrexate,relapsed/refractory PTCL [2]; of the 15 patients who did not have a response to a prior ICE-based regimen,40%
same,Patients who proceeded to a stem cell transplant upon attaining a response to pralatrexate,relapsed/refractory PTCL [2]; of the 20 patients with prior ICE/RICE/DICE,Two
same,CR/CRu based on investigators assessment,relapsed/refractory PTCL [2]; other 89 patients,17%
same,CR/CRu by independent central review,relapsed/refractory PTCL [2]; other 89 patients,10%
same,Median PFS according to central review,relapsed/refractory PTCL [2]; other 89 patients,3.3 months
same,Median duration of response by central review,relapsed/refractory PTCL [2]; other 89 patients,9.4 months
same,Median duration of response per investigator assessment,relapsed/refractory PTCL [2]; other 89 patients,6.8 months
same,ORR based on investigators assessment,relapsed/refractory PTCL [2]; other 89 patients,39%
same,ORR by independent central review,relapsed/refractory PTCL [2]; other 89 patients (no prior ICE/RICE/DICE),27%
same,"OS, Median, months (95% CI)","relapsed/refractory PTCL [2]; prior ICE-based regimen, N=20, Kaplan-Meier","12.0 (5.2, 23.4) months"
same,"Duration of response, Range",relapsed/refractory PTCL [2]; [13],1.3-22.1 months
same,Tumor response: CR,relapsed/refractory PTCL [2]; [13],3 (15) n (%)
same,Tumor response: ORR (CR + PR),relapsed/refractory PTCL [2]; [13],8 (40) n (%)
same,Tumor response: PD,relapsed/refractory PTCL [2]; [13],4 (20) n (%)
same,Tumor response: PR,relapsed/refractory PTCL [2]; [13],5 (25) n (%)
same,Tumor response: SD,relapsed/refractory PTCL [2]; [13],2 (10) n (%)
same,"Duration of response, Median, months (95% CI)",relapsed/refractory PTCL [2]; [14],"13.1 months and 13.1 (3.4, NA) months"
same,"PFS, Median, months (95% CI)",relapsed/refractory PTCL [2]; [14],"14.4 months and 14.4 (1.5, NA) months"
same,Tumor response: CR,relapsed/refractory PTCL [2]; [15],5 (25) n (%)
same,Tumor response: NA (not assessable),relapsed/refractory PTCL [2]; [15],1 (5) n (%)
same,Tumor response: ORR (CR + PR),relapsed/refractory PTCL [2]; [15],8 (40) n (%)
same,Tumor response: PD,relapsed/refractory PTCL [2]; [15],6 (30) n (%)
same,Tumor response: PR,relapsed/refractory PTCL [2]; [15],3 (15) n (%)
same,Tumor response: SD,relapsed/refractory PTCL [2]; [15],5 (25) n (%)
same,"Duration of response, Median, months (95% CI)",relapsed/refractory PTCL [2]; [16],"16.2 months and 16.2 (3.4, NA) months"
same,"PFS, Median, months (95% CI)",relapsed/refractory PTCL [2]; [16],"4.8 (2.5, 14.4) months"
same,"OS, Range","relapsed/refractory PTCL [2]; prior ICE-based regimen, N=20, survival follow up ended at two years",1.1-24.0^d months

# — US20130178441A1, “Methods for Extending Progression-Free Survival using 10-Propargyl-10-Deazaaminopterin” (ALLOS THERAPEUTICS, INC., priority 2010, published 2013)
